The source of these data is ChEMBL document CHEMBL3272079, “Synthesis and preliminary pharmacological activity of aminoalkoxy isosteres of glycolate ester anticholinergics” (J Med Chem, 1977).

Each structure is given as a SMILES string. Counter-ions that a name gives are not always drawn. The source made the active and inactive calls. The calls are words filed in the database; no cut-off is given here.

In one data set the test system is Oryctolagus cuniculus. Put plainly: Central dopaminergic activity in New Zealand rabbit assessed as change in colonic temperature at 5 mg/kg, iv measured every 15 mins for 2 hrs by thermistor probe attached telethermometric analysis. It counts as functional, organism-based. Also noted: dose 5 mg/kg.
The species entered for data set [1] is Rattus norvegicus. The conditions noted are these: Wistar, Jejunum.
Description: Antagonist activity at muscarinic acetylcholine receptor in Wistar rat jejunum assessed as inhibition of acetylcholine-induced contraction preincubated for 2 mins followed by acetylcholine challenge
Data set [2] is filed under the species Rattus norvegicus. Kind of data set: animal or person. Type of data set: functional. As to conditions: Wistar, ip, route intraperitoneal.
Description: Anticataleptic activity in albino Wistar rat assessed as inhibition of perphenazine-induced catatonia at 2 mg/kg, ip preincubated for 15 mins followed by perphenazine challenge measured at 3 hrs relative to control
The species entered for data set [3] is Rattus norvegicus. Put plainly: animal or person. Type of data set: functional. As to conditions: Wistar, ip, route intraperitoneal. The source holds these as a separate data set.
Description: Anticataleptic activity in albino Wistar rat assessed as inhibition of perphenazine-induced catatonia at 2 mg/kg, ip preincubated for 15 mins followed by perphenazine challenge measured at 1 hr relative to control
For data set [4], the species on record is Rattus norvegicus. Put plainly: animal or person. Type of data set: functional. As to conditions: Wistar, ip, route intraperitoneal. This is another data set of the same source.
Description: Anticataleptic activity in albino Wistar rat assessed as inhibition of perphenazine-induced catatonia at 2 mg/kg, ip preincubated for 15 mins followed by perphenazine challenge measured at 0.5 hrs relative to control
For data set [5], the species on record is Rattus norvegicus. Put plainly: animal or person. Type of data set: functional. The conditions noted are these: Wistar, ip, route intraperitoneal. The source holds these as a separate data set.
Description: Anticataleptic activity in albino Wistar rat assessed as inhibition of perphenazine-induced catatonia at 2 mg/kg, ip preincubated for 15 mins followed by perphenazine challenge measured at 2 hrs relative to control
Data set [6] in a line: Octanol-phosphate buffer partition coefficient, Kp of the compound at pH 7.4. It counts as physicochemical.

As a reminder, the inhibition in vivo is the percentage by which the read-out fell short of the control. Low readings indicate a response near the control, high ones a response far below the control.
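Wherever pD'2 is given: muscarinic receptor antagonism measured as block of acetylcholine-evoked contraction in isolated jejunum, tissue exposed to test compound for 2 min before the acetylcholine challenge.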

With `CCN(CC)CCOCC(O)(c1ccccc1)c1ccccc1` [listing 1 of 3 here], the result in the data set on Oryctolagus cuniculus was inactive. Moreover, in the data set filed under Rattus norvegicus [1], the pD'2 is 4.92.

Take `CN(C)CCCOCC(O)(c1ccccc1)c1ccccc1`: the inhibition in vivo at 2 mg/kg in the data set filed under Rattus norvegicus [2] amounted to 17%; in the data set filed under Rattus norvegicus [3], 71%; in the data set listed under Rattus norvegicus [4], 100%; in the data set filed under Rattus norvegicus [5], 54%. The molecule also registered a pD'2 in the data set filed under Rattus norvegicus [1] of 5.02.

Take `CCN(CC)CCOC(=O)C(O)(c1ccccc1)c1ccccc1.Cl`: in the data set with Oryctolagus cuniculus, the outcome was inactive. Also, in data set [6], the Kp stood at 0.26.

Molecule `C[N+]1(C)CCCC(OCC(O)(c2ccccc2)c2ccccc2)C1` (configuration not stated) had a pD'2 in the data set listed under Rattus norvegicus [1] of 5.68.

`CN1CCC(OCC(O)(c2ccccc2)c2ccccc2)CC1` [listing 1 of 3 here] yielded a pD'2 in the data set listed under Rattus norvegicus [1] of 6.24.

As for `CCN(CC)CCOCC(O)(c1ccccc1)c1ccccc1` [listing 2 of 3 here], in data set [6], the Kp is 5.6.

Turning to `CN1[C@@H]2CC[C@H]1C[C@H](OC(=O)C(CO)c1ccccc1)C2` (some centres not stated), the inhibition in vivo at 2 mg/kg in the data set filed under Rattus norvegicus [2] came out at 27%; in the data set listed under Rattus norvegicus [3], 56%; in the data set filed under Rattus norvegicus [4], 87%; in the data set listed under Rattus norvegicus [5] it was 30%. In the data set listed under Rattus norvegicus [1], the pD'2 turned out to be 7.3.

Regarding `CN1CCC(OCC(O)(c2ccccc2)c2ccccc2)C1` (configuration not stated), the inhibition in vivo at 2 mg/kg was found to be 0% in the data set listed under Rattus norvegicus [2], 21% in the data set filed under Rattus norvegicus [3], 50% in the data set listed under Rattus norvegicus [4] and 8% in the data set listed under Rattus norvegicus [5]. Further, in the data set filed under Rattus norvegicus [1], the pD'2 was determined as 5.58.

Molecule `CC[N+]1(C)CCCC(OCC(O)(c2ccccc2)c2ccccc2)C1` (configuration not stated) had a pD'2 in the data set filed under Rattus norvegicus [1] of 5.

For the molecule `CN1CCC(OCC(O)(c2ccccc2)c2ccccc2)CC1` [listing 2 of 3 here], the inhibition in vivo at 2 mg/kg in the data set filed under Rattus norvegicus [2] was found to be 0%; in the data set listed under Rattus norvegicus [3], 37%; in the data set filed under Rattus norvegicus [4], 80%; in the data set filed under Rattus norvegicus [5], 7%.

As to `CCN1CCCC(OCC(O)(c2ccccc2)c2ccccc2)C1` (configuration not stated), the inhibition in vivo at 2 mg/kg is 0% in the data set listed under Rattus norvegicus [2], 0% in the data set filed under Rattus norvegicus [3], 12% in the data set listed under Rattus norvegicus [4] and 0% in the data set filed under Rattus norvegicus [5]. In addition, the pD'2 in the data set filed under Rattus norvegicus [1] amounted to 4.95.

Take `C[N+]1(C)CCC(OCC(O)(c2ccccc2)c2ccccc2)CC1`: the pD'2 in the data set listed under Rattus norvegicus [1] was 7.26.

With `C=CCN(C)CCOCC(O)(c1ccccc1)c1ccccc1`, the inhibition in vivo at 2 mg/kg in the data set filed under Rattus norvegicus [2] came out at 0%; in the data set listed under Rattus norvegicus [3], 25%; in the data set filed under Rattus norvegicus [4] it was 79%; in the data set filed under Rattus norvegicus [5], 17%. This molecule also displayed a pD'2 in the data set listed under Rattus norvegicus [1] of 4.09.

Regarding `CCN(CC)CCOCC(O)(c1ccccc1)c1ccccc1` [listing 3 of 3 here], the inhibition in vivo at 2 mg/kg in the data set filed under Rattus norvegicus [2] amounted to 0%; in the data set listed under Rattus norvegicus [3] it was 0%; in the data set filed under Rattus norvegicus [4], 38%; in the data set listed under Rattus norvegicus [5], 0%.

`CN1CCC(OCC(O)(c2ccccc2)c2ccccc2)CC1` [listing 3 of 3 here] came in with a Kp in data set [6] of 3.1.

Consider `OC(COC1CN2CCC1CC2)(c1ccccc1)c1ccccc1` (configuration not stated), for which the result in the data set on Oryctolagus cuniculus was inactive. The inhibition in vivo at 2 mg/kg in the data set filed under Rattus norvegicus [2] was 48%; in the data set listed under Rattus norvegicus [3], 85%; in the data set listed under Rattus norvegicus [4], 96%; in the data set listed under Rattus norvegicus [5], 56%. This molecule showed a pD'2 in the data set listed under Rattus norvegicus [1] of 6.58.

Regarding `CN1CCCC(OCC(O)(c2ccccc2)c2ccccc2)C1` (configuration not stated), the inhibition in vivo at 2 mg/kg in the data set listed under Rattus norvegicus [2] turned out to be 17%; in the data set listed under Rattus norvegicus [3], 67%; in the data set filed under Rattus norvegicus [4] it was 92%; in the data set listed under Rattus norvegicus [5], 54%. For the same molecule, in the data set listed under Rattus norvegicus [1], the pD'2 amounted to 4.9.

For the molecule `CC[N+](C)(CC)CCOCC(O)(c1ccccc1)c1ccccc1`, the pD'2 in the data set listed under Rattus norvegicus [1] was found to be 6.92.

The molecule `C[N+](C)(C)CCOCC(O)(c1ccccc1)c1ccccc1` yielded a pD'2 in the data set filed under Rattus norvegicus [1] of 5.49.

Turning to `CN(C)CCOCC(O)(c1ccccc1)c1ccccc1`, the inhibition in vivo at 2 mg/kg is 8% in the data set listed under Rattus norvegicus [2], 21% in the data set filed under Rattus norvegicus [3], 75% in the data set listed under Rattus norvegicus [4] and 21% in the data set filed under Rattus norvegicus [5]. The molecule also gave a pD'2 in the data set filed under Rattus norvegicus [1] of 4.68.

For `CN1[C@@H]2C[C@@H](OC(=O)[C@H](CO)c3ccccc3)C[C@H]1[C@@H]1O[C@@H]12` [SCOPOLAMINE HYDROBROMIDE], the inhibition in vivo at 2 mg/kg in the data set filed under Rattus norvegicus [2] came to 71%; in the data set filed under Rattus norvegicus [3], 96%; in the data set filed under Rattus norvegicus [4], 96%; in the data set listed under Rattus norvegicus [5], 83%. The pD'2 in the data set filed under Rattus norvegicus [1] was 5.31.

With `C=CCN(CC)CCOCC(O)(c1ccccc1)c1ccccc1`, the inhibition in vivo at 2 mg/kg in the data set filed under Rattus norvegicus [2] came out at 0%; in the data set listed under Rattus norvegicus [3] it was 0%; in the data set filed under Rattus norvegicus [4], 8%; in the data set listed under Rattus norvegicus [5], 0%. The molecule also registered a pD'2 in the data set listed under Rattus norvegicus [1] of 5.13.

In the data set listed under Rattus norvegicus [1], `C[N+]12CCC(CC1)C(OCC(O)(c1ccccc1)c1ccccc1)C2` (configuration not stated) registered a pD'2 of 6.18.
